Results published in patent US8481502B2, “Antibacterial aminoglycoside analogs” (Achaogen, Inc., priority 2009, dated 2013).
In brackets after ≈: the same amount, converted by molar mass.

Key:
[1] = system: E. coli ATCC 25922 (AECO001); experiment: MIC assay, CLSI broth microdilution, AECO001; assay type: cell-based; conditions: Escherichia coli; AECO001 is ATCC25922; Mueller Hinton Broth, 35 C, 20 hours
Experimental: (§1) Minimum inhibitory concentrations (MIC) were determined by reference Clinical and Laboratory Standards Institute (CLSI) broth microdilution methods per M7-A7 [2006]. Quality control ranges utilizing E. coli ATCC 25922, P. aeruginosa ATCC 27853 and S. aureus ATCC 29213, and interpretive criteria for comparator agents were as published in CLSI M100-S17 [2007]. Briefly, serial two-fold dilutions of the test compounds were prepared at 2× concentration in Mueller Hinton Broth. The compound dilutions were mixed in 96-well assay plates in a 1:1 ratio with bacterial inoculum. The inoculum was prepared by suspension of a colony from an agar plate that was prepared the previous day. Bacteria were suspended in sterile saline and added to each assay plate to obtain a final concentration of 5×10^5 CFU/mL. The plates were incubated at 35 C for 20 hours in ambient air.

[2] = system: P. aeruginosa ATCC 27853 (APAE001); experiment: MIC assay, CLSI broth microdilution, APAE001; assay type: cell-based; conditions: Pseudomonas aeruginosa; APAE001 is ATCC27853; Mueller Hinton Broth, 35 C, 20 hours
Experimental: as §1

Row | Compound | MIC [1] [µg/mL] | MIC [2] [µg/mL]
1 | NC[C@@H](O)[C@H](O)C(=O)N[C@@H]1C[C@H](N)[C@@H](O[C@H]2O[C@H](CN)[C@@H](O)C[C@H]2N)[C@H](O[C@@H]2O[C@H](CO)[C@@H](O[C@H]3O[C@@H](CN)[C@@H](O)[C@H](O)[C@H]3N)[C@H]2O)[C@H]1O [1/11] | 1 to 16 (≈ 1.4 to 22.4 µM) | ≤ 1
2 | NC[C@@H]1O[C@H](O[C@H]2[C@@H](O)[C@H](O[C@@H]3[C@@H](O)[C@H](NC(=O)[C@@H](O)[C@@H](O)CN)C[C@H](N)[C@H]3O[C@H]3O[C@H](CN)[C@@H](O)C[C@H]3N)O[C@@H]2CO)[C@H](N)[C@@H](O)[C@@H]1O [2/3] | 1 to 16 (≈ 1.4 to 22.4 µM) | ≤ 1
3 | NC[C@@H](F)[C@H](O)C(=O)N[C@@H]1C[C@H](N)[C@@H](O[C@H]2O[C@H](CN)[C@@H](O)C[C@H]2N)[C@H](O[C@@H]2O[C@H](CO)[C@@H](O[C@H]3O[C@@H](CN)[C@@H](O)[C@H](O)[C@H]3N)[C@H]2O)[C@H]1O [3/3] | ≤ 1 | ≤ 1
4 | NC[C@@H]1O[C@H](O[C@H]2[C@@H](O)[C@H](O[C@@H]3[C@@H](O)[C@H](NC(=O)[C@@H](O)C(F)(F)CN)C[C@H](N)[C@H]3O[C@H]3O[C@H](CN)[C@@H](O)C[C@H]3N)O[C@@H]2CO)[C@H](N)[C@@H](O)[C@@H]1O [4/3] | 1 to 16 (≈ 1.36 to 21.7 µM) | ≤ 1
5 | NC[C@@H]1C[C@@H](O)[C@@H](N)[C@@H](O[C@H]2[C@H](O[C@@H]3O[C@H](CO)[C@@H](O[C@H]4O[C@@H](CN)[C@@H](O)[C@H](O)[C@H]4N)[C@H]3O)[C@@H](O)[C@H](NC(=O)[C@@H](O)[C@H](O)CN)C[C@@H]2N)O1 [5/12] | 1 to 16 (≈ 1.4 to 22.4 µM) | ≤ 1
6 | NC[C@@H]1C[C@@H](O)[C@@H](N)[C@@H](O[C@H]2[C@H](O[C@@H]3O[C@H](CO)[C@@H](O[C@H]4O[C@@H](CN)[C@@H](O)[C@H](O)[C@H]4N)[C@H]3O)[C@@H](O)[C@H](NC(=O)[C@@H](O)[C@@H](O)CN)C[C@@H]2N)O1 [6/3] | 1 to 16 (≈ 1.4 to 22.4 µM) | ≤ 1

Other lines, results leading:

Row | MIC [1] [µg/mL] | MIC [2] [µg/mL] | Compound
7 | 1 to 16 (≈ 1.39 to 22.3 µM) | ≤ 1 | NC[C@@H]1C[C@@H](O)[C@@H](N)[C@@H](O[C@H]2[C@H](O[C@@H]3O[C@H](CO)[C@@H](O[C@H]4O[C@@H](CN)[C@@H](O)[C@H](O)[C@H]4N)[C@H]3O)[C@@H](O)[C@H](NC(=O)[C@@H](O)[C@H](F)CN)C[C@@H]2N)O1 [7/3]
8 | 1 to 16 (≈ 1.36 to 21.7 µM) | ≤ 1 | NC[C@@H]1C[C@@H](O)[C@@H](N)[C@@H](O[C@H]2[C@H](O[C@@H]3O[C@H](CO)[C@@H](O[C@H]4O[C@@H](CN)[C@@H](O)[C@H](O)[C@H]4N)[C@H]3O)[C@@H](O)[C@H](NC(=O)[C@@H](O)C(F)(F)CN)C[C@@H]2N)O1 [8/3]
